Assay results reported in patent publication US10428087B2, “Pyrimidinones as PI3K inhibitors” (Incyte Corporation, priority 2009, dated 2019).
Structures can show the parent of a compound that is named as a salt.

Tested on: Pfeiffer cell line (diffuse large B cell lymphoma)
Assay: Pfeiffer cell proliferation assay (Example B2)
Type: cell-based
Conditions: Homo sapiens, Pfeiffer, Pfeiffer cells, [3H]-thymidine
Method: Pfeiffer cell line (diffuse large B cell lymphoma) was purchased from ATCC (Manassas, Va.) and maintained in the culture medium recommended (RPMI and 10% FBS). To measure the anti-proliferation activity of the PI3Kδ submittals, the Pfeiffer cells were plated with the culture medium (2×10^3 cells/well/per 200 μl) into 96-well ultra-low binding plates (Corning, Corning, N.Y.), in the presence or absence of a concentration range of test compounds. After 3-4 days, [^3H]-thymidine (1 μCi/well) (PerkinElmer, Boston, Mass.) in PBS was then added to the cell culture for an additional 12 hrs before the incorporated radioactivity was separated by filtration with water through GF/B filters (Packard Bioscience, Meridenj, Conn.) and measured by liquid scintillation counting with a TopCount (Packard Bioscience). See Table 3 for data related to compounds of the invention.

| SMILES | IC50 [µM] |
| --- | --- |
| COc1cccc(-c2c(C(C)Nc3ncnc4[nH]cnc34)nc3cccc(C)n3c2=O)c1 (stereo not shown) [Example 65, 3-(3-Methoxyphenyl)-6-methyl-2-[1-(9H-purin-6-ylamino)ethyl]-4H-pyrido[1,2-a]pyrimidin-4-one trifluoroacetic acid salt] | 0.05 to 0.1 |
| Cc1csc2nc(C(C)Nc3ncnc4[nH]cnc34)c(-c3cccc(Cl)c3)c(=O)n12 (stereo not shown) [Example 36, 6-(3-chlorophenyl)-3-methyl-7-[1-(9H-purin-6-ylamino)ethyl]-5H-[1,3]thiazolo[3,2-a]pyrimidin-5-one trifluoroacetic acid salt] | 0.05 to 0.1 |
| Cc1csc2nc(C(C)Nc3ncnc4[nH]cnc34)c(-c3nccs3)c(=O)n12 (stereo not shown) [Example 20, 3-methyl-7-[1-(9H-purin-6-ylamino)ethyl]-6-(1,3-thiazol-2-yl)-5H-[1,3]thiazolo[3,2-a]pyrimidin-5-one trifluoroacetic acid salt] | 0.05 to 0.1 |
| Cc1cccc2nc(C(C)Nc3ncnc4[nH]cnc34)c(-c3cccc(C#N)c3)c(=O)n12 (stereo not shown) [Example 83, 3-{6-Methyl-4-oxo-2-[1-(9H-purin-6-ylamino)ethyl]-4H-pyrido[1,2-a]pyrimidin-3-yl}benzonitrile trifluoroacetic acid salt] | 0.1 to 0.5 |
| CCc1cccc2nc(C(C)Nc3nc(N)nc4[nH]cnc34)c(-c3cc(F)cc(F)c3)c(=O)n12 (stereo not shown) [Example 77, 2-{1-[(2-Amino-9H-purin-6-yl)amino]ethyl}-3-(3,5-difluorophenyl)-6-ethyl-4H-pyrido[1,2-a]pyrimidin-4-one trifluoroacetic acid salt] | < 0.05 |
| CCc1cccc2nc(C(C)Nc3ncnc4[nH]cnc34)c(-c3cc(F)cc(F)c3)c(=O)n12 (stereo not shown) [Example 76, 3-(3,5-Difluorophenyl)-6-ethyl-2-[1-(9H-purin-6-ylamino)ethyl]-4H-pyrido[1,2-a]pyrimidin-4-one trifluoroacetic acid salt] | 0.1 to 0.5 |
| Cc1cccc2nc(C(C)Nc3nc(N)nc4[nH]cnc34)c(-c3ccccc3)c(=O)n12 (stereo not shown) [Example 50, 2-{1-[(2-Amino-9H-purin-6-yl)amino]ethyl}-6-methyl-3-phenyl-4H-pyrido[1,2-a]pyrimidin-4-one trifluoroacetic acid salt] | < 0.05 |
| CCc1cccc2nc(C(C)Nc3ncnc4[nH]cnc34)c(-c3ccc(F)cc3)c(=O)n12 (stereo not shown) [Example 78, 6-Ethyl-3-(4-fluorophenyl)-2-[1-(9H-purin-6-ylamino)ethyl]-4H-pyrido[1,2-a]pyrimidin-4-one trifluoroacetic acid salt] | 0.1 to 0.5 |
| Cc1csc2nc(C(C)Nc3ncnc4[nH]cnc34)c(-c3cscn3)c(=O)n12 (stereo not shown) [Example 21, 3-methyl-7-[1-(9H-purin-6-ylamino)ethyl]-6-(1,3-thiazol-4-yl)-5H-[1,3]thiazolo[3,2-a]pyrimidin-5-one trifluoroacetic acid salt] | 0.05 to 0.1 |
| Cc1csc2nc(C(C)Nc3nc(F)nc4[nH]cnc34)c(-c3cc(F)cc(F)c3)c(=O)n12 (stereo not shown) [Example 18, 6-(3,5-difluorophenyl)-7-{1-[(2-fluoro-9H-purin-6-yl)amino]ethyl}-3-methyl-5H-[1,3]thiazolo[3,2-a]pyrimidin-5-one] | 0.05 to 0.1 |
| Cc1csc2nc(C(C)Nc3ncnc4[nH]cnc34)c(-c3ccccc3F)c(=O)n12 (stereo not shown) [Example 40, 6-(2-fluorophenyl)-3-methyl-7-[1-(9H-purin-6-ylamino)ethyl]-5H-[1,3]thiazolo[3,2-a]pyrimidin-5-one trifluoroacetic acid salt] | 0.05 to 0.1 |
| CC(Nc1nc(N)nc2[nH]cnc12)c1nc2sccn2c(=O)c1-c1cc(F)cc(F)c1 (stereo not shown) [Example 24, 7-{1-[(2-amino-9H-purin-6-yl)amino]ethyl}-6-(3,5-difluorophenyl)-5H-[1,3]thiazolo[3,2-a]pyrimidin-5-one] | 0.1 to 0.5 |
| CC(Nc1ncnc2[nH]cnc12)c1nc2sccn2c(=O)c1-c1cc(F)cc(F)c1 (stereo not shown) [Example 25, 6-(3,5-difluorophenyl)-7-[1-(9H-purin-6-ylamino)ethyl]-5H-[1,3]thiazolo[3,2-a]pyrimidin-5-one] | 0.5 to 1 |
| Cc1cccc2nc(C(C)Nc3ncnc4[nH]cnc34)c(-c3ccccc3Cl)c(=O)n12 (stereo not shown) [Example 57, 3-(2-Chlorophenyl)-6-methyl-2-[1-(9H-purin-6-ylamino)ethyl]-4H-pyrido[1,2-a]pyrimidin-4-one trifluoroacetic acid salt] | 0.05 to 0.1 |
| Cc1csc2nc(C(C)Nc3ncnc4[nH]cnc34)c(-c3cc(F)cc(F)c3)c(=O)n12 (stereo not shown) [Example 12, 6-(3,5-difluorophenyl)-3-methyl-7-[1-(9H-purin-6-ylamino)ethyl]-5H-[1,3]thiazolo[3,2-a]pyrimidin-5-one] | 0.1 to 0.5 |
| Cc1cccc(-c2c(C(C)Nc3nc(N)nc4[nH]cnc34)nc3cccc(C)n3c2=O)c1 (stereo not shown) [Example 52, 2-{1-[(2-Amino-9H-purin-6-yl)amino]ethyl}-6-methyl-3-(3-methylphenyl)-4H-pyrido[1,2-a]pyrimidin-4-one trifluoroacetic acid salt] | 0.05 to 0.1 |

| SMILES | IC50 [µM] |
| --- | --- |
| Cc1cccc2nc(C(C)Nc3ncnc4[nH]cnc34)c(-c3cccc(F)c3F)c(=O)n12 (stereo not shown) [Example 66, 3-(2,3-Difluorophenyl)-6-methyl-2-[1-(9H-purin-6-ylamino)ethyl]-4H-pyrido[1,2-a]pyrimidin-4-one trifluoroacetic acid salt] | 0.1 to 0.5 |
| Cc1csc2nc([C@H](C)Nc3ccnc4[nH]cnc34)c(-c3cccc(F)c3)c(=O)n12 [Example 46, 6-(3-Fluorophenyl)-7-[(1S)-1-(3H-imidazo[4,5-b]pyridin-7-ylamino)ethyl]-3-methyl-5H-[1,3]thiazolo[3,2-a]pyrimidin-5-one] | < 0.05 |
| Cc1cccc2nc(C(C)Nc3ncnc4[nH]cnc34)c(-c3ccc(F)c(F)c3)c(=O)n12 (stereo not shown) [Example 68, 3-(3,4-Difluorophenyl)-6-methyl-2-[1-(9H-purin-6-ylamino)ethyl]-4H-pyrido[1,2-a]pyrimidin-4-one trifluoroacetic acid salt] | 0.5 to 1 |
| Cc1csc2nc(C(C)Nc3nc(N)nc4[nH]cnc34)c(-c3cccc(Cl)c3)c(=O)n12 (stereo not shown) [Example 32, 7-{1-[(2-amino-9H-purin-6-yl)amino]ethyl}-6-(3-chlorophenyl)-3-methyl-5H-[1,3]thiazolo[3,2-a]pyrimidin-5-one trifluoroacetic acid salt] | < 0.05 |
| Cc1csc2nc(C(C)Nc3ncnc4[nH]cnc34)c(-c3ccncc3)c(=O)n12 (stereo not shown) [Example 19, 3-methyl-7-[1-(9H-purin-6-ylamino)ethyl]-6-pyridin-4-yl-5H-[1,3]thiazolo[3,2-a]pyrimidin-5-one] | > 1 |
| CC(Nc1nc(N)nc2[nH]cnc12)c1nc2sccn2c(=O)c1-c1ccccc1 (stereo not shown) [Example 27, 7-{1-[(2-amino-9H-purin-6-yl)amino]ethyl}-6-phenyl-5H-[1,3]thiazolo[3,2-a]pyrimidin-5-one] | 0.1 to 0.5 |
| Cc1csc2nc(C(C)Nc3ncnc4[nH]cnc34)c(-c3ccc(F)cc3)c(=O)n12 (stereo not shown) [Example 22, 6-(4-fluorophenyl)-3-methyl-7-[1-(9H-purin-6-ylamino)ethyl]-5H-[1,3]thiazolo[3,2-a]pyrimidin-5-one trifluoroacetic acid salt] | 0.1 to 0.5 |
| Cc1csc2nc(C(C)Nc3nc(N)nc4[nH]cnc34)c(-c3ccccc3F)c(=O)n12 (stereo not shown) [Example 33, 7-{1-[(2-amino-9H-purin-6-yl)amino]ethyl}-6-(2-fluorophenyl)-3-methyl-5H-[1,3]thiazolo[3,2-a]pyrimidin-5-one trifluoroacetic acid salt] | < 0.05 |
| Cc1cccc2nc(C(C)Nc3nc(N)nc4[nH]cnc34)c(-c3cccc(Cl)c3)c(=O)n12 (stereo not shown) [Example 54, 2-{1-[(2-Amino-9H-purin-6-yl)amino]ethyl}-3-(3-chlorophenyl)-6-methyl-4H-pyrido[1,2-a]pyrimidin-4-one trifluoroacetic acid salt] | 0.05 to 0.1 |
| Cc1csc2nc(C(C)Nc3ncnc4[nH]cnc34)c(-c3ccccn3)c(=O)n12 (stereo not shown) [Example 14, 3-methyl-7-[1-(9H-purin-6-ylamino)ethyl]-6-pyridin-2-yl-5H-[1,3]thiazolo[3,2-a]pyrimidin-5-one] | > 1 |
| Cc1csc2nc(C(C)Nc3nc(N)nc4[nH]cnc34)c(-c3cncc(F)c3)c(=O)n12 (stereo not shown) [Example 38, 7-{1-[(2-amino-9H-purin-6-yl)amino]ethyl}-6-(5-fluoropyridin-3-yl)-3-methyl-5H-[1,3]thiazolo[3,2-a]pyrimidin-5-one trifluoroacetic acid salt] | 0.05 to 0.1 |
| Cc1cccc2nc(C(C)Nc3ncnc4[nH]cnc34)c(-c3cccc(Cl)c3)c(=O)n12 (stereo not shown) [Example 53, 3-(3-Chlorophenyl)-6-methyl-2-[1-(9H-purin-6-ylamino)ethyl]-4H-pyrido[1,2-a]pyrimidin-4-one trifluoroacetic acid salt] | 0.05 to 0.1 |
| CC(Nc1nc(N)nc2[nH]cnc12)c1nc2ccccn2c(=O)c1-c1cc(F)cc(F)c1 (stereo not shown) [Example 80, 2-{1-[(2-Amino-9H-purin-6-yl)amino]ethyl}-3-(3,5-difluorophenyl)-4H-pyrido[1,2-a]pyrimidin-4-one trifluoroacetic acid salt] | 0.1 to 0.5 |
| Cc1ccc(-c2c(C(C)Nc3ncnc4[nH]cnc34)nc3scc(C)n3c2=O)cc1 (stereo not shown) [Example 31, 3-methyl-6-(4-methylphenyl)-7-[1-(9H-purin-6-ylamino)ethyl]-5H-[1,3]thiazolo[3,2-a]pyrimidin-5-one trifluoroacetic acid salt] | 0.1 to 0.5 |
| Cc1csc2nc(C(C)Nc3ncnc4[nH]cnc34)c(-c3cc(F)cc(Cl)c3)c(=O)n12 (stereo not shown) [Example 37, 6-(3-chloro-5-fluorophenyl)-3-methyl-7-[1-(9H-purin-6-ylamino)ethyl]-5H-[1,3]thiazolo[3,2-a]pyrimidin-5-one trifluoroacetic acid salt] | 0.05 to 0.1 |
